# Data as given in patent US20140100183A1, “CENTRAL ADMINISTRATION OF STABLE FORMULATIONS OF THERAPEUTIC AGENTS FOR CNS CONDITIONS” (The Regents of the University of Colorado, a body corporate, priority 2006, published 2014).
# Where “and” joins values, the source holds several entries; their conditions need not be identical. Equal values may be shown once. Read-outs that look alike come from different tables or passages of the source.
# Columns and labels:
# [1] = system: sensory inhibition deficits in DBA/2 mice; assay: Sensory inhibition (paired auditory stimuli, TC ratio) after acute ICV administration; type: in vivo, mouse; settings: for conditioning amplitude / test amplitude: vs baseline; for Rodent ICV dose: effective daily dose, mice
# Procedure: The following methods were used to record the sensory inhibition.
# The deficit in sensory inhibition can be quantified using the paired stimulus paradigm in which 2 identical stimuli are delivered 0.5 seconds apart and the electrophysiological response to each is recorded. In normal individuals, the response to the second, or test, stimulus, occurring 50 msec after stimulus onset, is reduced compared to the response to the first, or conditioning stimulus. However, schizophrenia patients have similar magnitude responses to both stimuli: The “TC ratio” is calculated by dividing the test amplitude by the conditioning amplitude. […] In normal individuals, the TC ratio is generally less than 0.4 while schizophrenia patients commonly have TC ratios above 0.5 and often approaching or exceeding 1.0.
# In the present study, briefly, 5 baseline records were obtained in response to the paired auditory stimuli, prior to drug administration. […] Recordings were obtained at 5 minute intervals for 90 minutes post injection. Data analyzed included the amplitude of the response to the first stimulus (conditioning amplitude), amplitude of the response to the second stimulus (test amplitude) and the TC ratio (test amplitude/conditioning amplitude). This final parameter gives a measure of the level of inhibition in the circuit initiated by the conditioning stimulus. […] DBA/2 mice routinely have TC ratios of ≧0.8.
# [2] = system: sensory inhibition deficits in DBA/2 mice; assay: Chronic ICV clozapine (7 day minipump), sensory inhibition; type: in vivo, mouse; settings: 0.25 μl/hr for 7 days
# Procedure: DBA/2 mice are implanted with a chronic indwelling cannula aimed at one anterior lateral ventricle (Alzet Brain Infusion system) which is connected to an osmotic minipump delivering 0.25 μl/hr for 7 days. On the 7th day, the mouse is anesthetized, placed in a stereotaxic instrument, a burr hole opened in the skull over the contralateral dorsal hippocampus and a recording electrode lowered to the CA3 region of the hippocampus. Evoked EEG responses to closely paired (0.5 msec apart) identical tones are recorded.
# animals = assay: Behavioral toxicology: openfield, elevated plus, ataxia; type: in vivo; settings: rat, in vivo
# Procedure: Several animal models as described below were used to determine the efficacy of formulations containing different concentrations of the drug. The animals were also tested for toxic effects as described in the table, below.
# All animals are assessed for ataxia, which is a measure of altered gate and ability to change body position. They are also placed on their acks and time to “righting” measured.
# [3] = system: prenatally stressed Sprague Dawley rats; assay: Chronic ICV clozapine by osmotic minipump in schizophrenia model (Example 3); type: in vivo, rat
# Procedure: After 1 week recovery from surgery, at least 10 baseline recording sessions are performed in which 30 pairs of identical auditory click stimuli are presented and the evoked potentials are recorded and averaged. This establishes the baseline parameters for sensory inhibition in the rats.
# Formulations described above are administered into the ventricles using an osmotic minipump to deliver 0.5 μl/hr for 14 days. The rats have a chronic recording electrode implant that allows repeated awake recording over several days and a ventricular cannula to permit withdrawal of CSF. Sensory inhibition is recorded on alternate days for the 14 days of the pump duration. At the end of each recording session, blood and CSF are sampled under light anesthesia to assess levels of the active agent. Brain penetration and distribution are assessed using tritiated active agent/excipient complex in the osmotic minipump in a separate group of animals. […] A rat model of deficient sensory inhibition is used which allows us to sample both fluids repeatedly over several days.
# Two days later, alternate day recording of sensory inhibition begins and continues for the full 14 days of the pump. […] Data are analyzed by analysis of variance and appropriate a posteriori analyses performed wherever significant differences are found (p<0.05).
# [4] = for prevention of precipitation on titration: even at very alkaline pH (≈11)
# [5] = cited from earlier work
# human = settings: effective daily dose, oral; cited from earlier work
# schizophrenia patients = settings: Iqbal et al. 2003; cited from earlier work
# [6] = system: primary mouse cortical neuron cultures; assay: Toxicity in primary mouse cortical neuron cultures (MTT)
# Procedure: In addition, a preliminary assessment of the toxicity of cyclodextrin in primary mouse cortical neuron cultures was performed. […] After dissection, and cellular dissociation, the cells were washed with Dulbecco's Modified Eagle's Medium with 10% fetal bovine serum. Following recentrifugation, the cells resuspended in plating medium, counted with trypan blue and plated at a constant density of 6.5×10^4 cells per well in a 96-well pre-coated plate. […] The cultures were maintained at 37° C. in a humidified atmosphere of 5% CO2. […] The cultures were incubated and cell toxicity assayed at 24, 48 and 72 hours. Viability was assessed by the MTT (3-(4,5 diethylthiazol-2-yl)-2,5)diphenyltetrazolium bromide) assay, CellTiter 96 Non-radioactive cell Proliferation Assay (Promega, Madison Wis.) and by visual examination.
smiles,measurement,setting,value
"CN1CCN(C2=Nc3cc(Cl)ccc3Nc3ccccc32)CC1 [Clozapine, 8-chloro-11-(4-methyl-1-piperazinyl)-5H-dibenzo [b,e][1,4] diazepine]",conditioning amplitude,[1]; 0.5 μg ICV,"increases in conditioning amplitude, though the latter did not reach statistical significance"
same,test amplitude,[1]; 0.5 μg ICV,decreases in test amplitude
same,time post injection with significantly reduced test amplitudes,[1]; 1.0 μg ICV,35 min
same,conditioning amplitude,[1]; 1.0 μg ICV,significantly increased conditioning amplitudes
same,test amplitude,[1]; 1.0 μg ICV,significantly reduced test amplitudes
same,Efficacy,[1]; acute effective dose for improvement of sensory inhibition deficits in mice,acute effective
same,Rodent ICV dose,[1],0.040 mg/kg
same,Rodent ICV dose,[1]; listed as clozapine,about 0.040 mg/kg
same,% of Oral dose,[1]; rodent ICV dose vs human oral equivalent,0.5%
same,ICV dose lower than systemically administered dose,"[1]; same mouse model, vs Simosky et al 2002",> 1000 fold
same,response to the second tone,[2],significant decreases in the response to the second tone
same,Highest non-toxic concentration,animals,50 mg/mL
same,plasma levels,"[3]; 0.5 μl/hr for 14 days, steady state",extremely low or not detectable
same,sensory inhibition,[3]; 14 days,improvement in sensory inhibition
same,pH until which addition of NaOH has little effect on solubility,"[4]; acidified with HCl, no solubility enhancing agent",~6.5
same,prevention of precipitation on titration,[4]; cyclodextrin,prevented clozapine precipitation
same,pH up to which precipitation is inhibited,[4]; cyclodextrin-to-clozapine molar ratio of 2:1,≤ 9.0
same,prevention of precipitation on titration,[4]; octyl glucoside,prevented clozapine precipitation
same,prevention of precipitation on titration above neutral pH,[4]; polyethylene glycol (PEG 4000),not able to prevent clozapine precipitation
same,prevention of precipitation on titration above neutral pH,[4]; polyvinylpyrrolidone (PVP 10K),not able to prevent clozapine precipitation
same,accumulation of drug in peripheral tissues and organs,rats; chronic ICV versus intraperitoneal (IP),significantly less accumulation of drug in peripheral tissues and organs
same,CNS pathology and systemic toxicity,"rats; rat, in vivo",minimal or no CNS pathology and low systemic toxicity
same,partition coefficient,"[5]; acidic conditions, pH 2",0.4
same,Solubility in water,[5],practically insoluble
same,octanol-to-water partition coefficient,"[5]; pH 7.4 (Merck Index, 2004)",1000
same,Human oral equivalent,human,7.5 mg/kg
same,patients who discontinue due to systemic side effects,schizophrenia patients,17%
same,Highest non-toxic concentration,[6]; In vitro primary cortical cell culture,10 µg/mL
same,final concentration at which significant toxicity was observed,[6]; clozapine formulated with cyclodextrin,≥ 10 μg/mL and ≥ 30 μM
